Measured values: patent US20250295649A1, “METHOD FOR PROMOTING ELONGATION OF LONG BONE DURING CHILDHOOD TO ADOLESCENCE BY GPER-1 ACTIVATION VARIANT” (Kaohsiung Medical University, priority 2024, published 2025)

What was measured:
mice = assay: Growth plate cartilage structure in mice, Safranin O staining; type: in vivo; settings: subcutaneous injection from 2 weeks old
Method: From 2 weeks old, mice are administered GPER-1 agonists at concentrations of 10^−8 g/kg, 10^−6 g/kg, and 10^−4 g/kg through subcutaneous injection to activate GPER-1. Safranin O staining is employed to label cartilage tissue for the analysis of growth plate cartilage structure. The growth plate cartilage is categorized into the resting zone (RZ), proliferation zone (PZ), and hypertrophy zone (HZ).

epiphyseal chondrocytes = assay: BrdU proliferation in ex vivo cultured epiphyseal cartilage of 4-day-old rats; type: cell-based; settings: for proliferation of epiphyseal chondrocytes (BrdU): ex vivo rat epiphyseal cartilage
Method: After taking out the cultured epiphyseal cartilage from 4-day-old rats and culturing them ex vivo, the cartilage tissues are given GPER-1 agonists at concentrations of 0.1, 0.5, 1, and 2 μM to activate the GPER-1 of chondrocytes. Subsequently, the amount of proliferating cells in living cells is detected using Bromodeoxyuridine (5-bromo-2′-deoxyuridine, BrdU).

CC(=O)c1ccc2c(c1)[C@H]1C=CC[C@H]1[C@@H](c1cc3c(cc1Br)OCO3)N2 (racemic) [GPER-1 agonist, (±)-1-[(3aR*,4S*,9bS*)-4-(6-Bromo-1,3-benzodioxol-5-yl)-3a,4,5,9b-tetrahydro-3H-cyclopenta[c]quinolin-8-yl]-ethenone]
thickness of the proliferative zone of the growth plate (mice; 10^−4 g/kg): effectively promote
thickness of the whole growth plate (mice; 10^−4 g/kg): effectively promote
thickness of the proliferative zone of the growth plate (mice; 10^−6 g/kg): effectively promote
thickness of the whole growth plate (mice; 10^−6 g/kg): effectively promote
proliferation of rat chondrocytes (epiphyseal chondrocytes; concentrations ranging from 0.1 to 1 μM (summary statement)): can promote
proliferation of epiphyseal chondrocytes (BrdU) (epiphyseal chondrocytes; 0.1 μM): significantly promote
proliferation of epiphyseal chondrocytes (BrdU) (epiphyseal chondrocytes; 0.5 μM): significantly promote
